Where two headings read alike, the source gives them in different places.
Tests used:
[1] = tested on: human myelogenous leukemia K562; experiment: MTS cytotoxicity assay, K562; type: cell-based
Method: (§1) In order to obtain information about the growth-inhibiting action of hydrazones reported in the present invention on tumor cells, growth inhibition was assessed for the following human tumor cell lines: human myelogenous leukemia K562, human cervical adenocarcinoma HeLa, human colon adenocarcinoma Caco-2, human colon carcinoma HT-29, human colon carcinoma HCT-15, and human breast carcinoma MCF-7.
(§2) The K562, HeLa, HT-29, HCT-15, Caco-2, and MCF-7 cell lines were obtained from the American type Culture Collection (ATCC, Manassas, Va.). K562 cells were maintained in RPMI 1640 medium (Gibco/Life Technologies, Gaithersburg, Md.) containing 10% heat-inactivated fetal bovine serum (FBS) (Atlanta Biologicals, Atlanta, Ga.) and 10000 U/L penicillin and 50 mg/L streptomycin. HeLa, HT-29, HCT-15, Caco-2 and MCF-7 cells were maintained in MEM with Earl's balanced salts, 10% FBS, penicillin, and streptomycin as above. Logarithmically growing HT-29, Caco-2, and MCF-7 cells were incubated with 0.05% trypsin containing 1 mM EDTA at 37° C. for about 5 min until cells were nonadherent and formed a single cell suspension. Trypsin activity was neutralized by adding 20-fold excess of the serum-containing medium. Cells were cultured at 37° C. in an atmosphere of air and 5% CO2.
(§3) Cytotoxicity assays were conducted by tetrazolium reduction of 3-(4,5-dimethylthiazol-2-yl)-5-(3-carboxymethoxyphenyl)-2-(4-sulfophenyl)-2H-tetrazolium (MTS) with N-methylphenazonium methyl sulfate (PMS) (CellTiter Assay, Promega, Madison, Wis.). Logarithmically growing cells were plated in 0.1 mL aliquots in 96-well microtiter plates. Cells were plated at an initial density of about 5000 cells/mL and allowed to acclimatize for 24 h. Cell suspensions were treated with various dilutions of compounds in triplicate, mixed well, and allowed to incubate for 48 h at 37° C. in an atmosphere of air and 5% CO2. To the cell suspension was added 20 μL of tetrazolium reagent, the mixture was incubated for 2 h at 37° C. in an atmosphere of air and 5% CO2, and absorbance at 490 nm was read by microplate reader. Control plates with serial dilutions of cell types were counted as a control for the assay. In all cases, controls indicated a linear response versus cell number, R^2≧0.99.

[2] = tested on: human cervical adenocarcinoma HeLa; experiment: MTS cytotoxicity assay, HeLa; type: cell-based; conditions: 48 h incubation
Method: as §1, §2, §3

[3] = tested on: human colon carcinoma HT-29; experiment: MTS cytotoxicity assay, HT-29; type: cell-based
Method: as §1, §2, §3

[4] = tested on: human colon carcinoma HCT-15; experiment: MTS cytotoxicity assay, HCT-15; type: cell-based
Method: as §1, §2, §3

[5] = tested on: human colon adenocarcinoma Caco-2; experiment: MTS cytotoxicity assay, Caco-2; type: cell-based
Method: as §1, §2, §3

[6] = tested on: human breast carcinoma MCF-7; experiment: MTS cytotoxicity assay, MCF-7; type: cell-based
Method: as §1, §2, §3

leukemia cell lines = experiment: NCI 60 human tumor cell line screen, leukemia; type: cell-based; conditions: arithmetic mean of two to nine cancer cell lines, read-out: Inhibitory concentration GI50, leukemia
From the text: (§4) Selected compounds were submitted for testing in the organ-specific panel of human tumor cell lines at the National Cancer Institute, Bethesda, Md. This screen utilized 60 human tumor cell lines, representing leukemia, melanoma, and cancers of the lung, colon, brain, ovary, kidney, prostate, and breast (Boyd, M. R., “Status of the NCl preclinical antitumor drug discovery screen”. In Principles and practice of oncology updates; De Vita, V. T., Jr. Hellman, S., Rosenberg, S. A., Eds.; Lippincott: Philadelphia, Pa., 1989; Vol. 3, pp 1-12).
(§5) The MG MID value is the average of the GI50 values for all the cell lines tested for drug concentrations in the range of 10^−4-10^−8 M (See website domain: dtp.nci.nih.gov/dtp).

[7] = tested on: nonsmall cell lung cancer cell lines; experiment: NCI 60 human tumor cell line screen, NSCL; type: cell-based; conditions: arithmetic mean of two to nine cancer cell lines, read-out: Inhibitory concentration GI50, NSCL
From the text: as §4, §5

colon cancer cell lines = experiment: NCI 60 human tumor cell line screen, colon; type: cell-based; conditions: arithmetic mean of two to nine cancer cell lines, read-out: Inhibitory concentration GI50, colon
From the text: as §4, §5

CNS cancer cell lines = experiment: NCI 60 human tumor cell line screen, CNS; type: cell-based; conditions: arithmetic mean of two to nine cancer cell lines, read-out: Inhibitory concentration GI50, CNS
From the text: as §4, §5

melanoma cell lines = experiment: NCI 60 human tumor cell line screen, melanoma; type: cell-based; conditions: arithmetic mean of two to nine cancer cell lines, read-out: Inhibitory concentration GI50, melanoma
From the text: as §4, §5

[8] = tested on: ovarian cancer cell lines; experiment: NCI 60 human tumor cell line screen, ovarian; type: cell-based; conditions: arithmetic mean of two to nine cancer cell lines, read-out: Inhibitory concentration GI50, ovarian
From the text: as §4, §5

renal cancer cell lines = experiment: NCI 60 human tumor cell line screen, renal; type: cell-based; conditions: arithmetic mean of two to nine cancer cell lines, read-out: Inhibitory concentration GI50, renal
From the text: as §4, §5

[9] = tested on: prostate cancer cell lines; experiment: NCI 60 human tumor cell line screen, prostate; type: cell-based; conditions: arithmetic mean of two to nine cancer cell lines, read-out: Inhibitory concentration GI50, prostrate
From the text: as §4, §5

breast cancer cell lines = experiment: NCI 60 human tumor cell line screen, breast; type: cell-based; conditions: arithmetic mean of two to nine cancer cell lines, read-out: Inhibitory concentration GI50, breast
From the text: as §4, §5

[10] = tested on: 60 human tumor cell lines; experiment: NCI 60 human tumor cell line screen, all cell lines; type: cell-based; conditions: for cells found to be the most sensitive: NCI screen, by cancer type; for mean GI50 (MG-MID): average of the GI50 values for all the cell lines tested, drug concentrations 10^−4-10^−8 M, read-out: MG-MID (mean graph midpoint)
From the text: as §4, §5

HL60 = experiment: MTS cytotoxicity on MDR tumor cells, HL60; type: cell-based; conditions: 72 hr incubation
HL60-VCR [11] = experiment: MTS cytotoxicity on MDR tumor cells, HL60-VCR; type: cell-based; conditions: Vincristine (VCR) resistant, 72 hr incubation
[12] = tested on: human colorectal carcinoma HT29; experiment: Western blot of signal transduction pathways in HT29 cells; type: cell-based; conditions: HT29, IC50 dose
Method: The newly synthesized hydrazones RPC038, RPC042, and RPC046 had shown anti-tumor activity against 60 human cancer cell lines panel of the National Cancer Institute and on multi-drug resistant cell lines. The present studies were conducted to evaluate their action on signal transduction pathways in human colorectal carcinoma HT29. All the three compounds were examined at their IC50 doses.
Human colorectal carcinoma HT29 cells were obtained from the National Cancer Institute, Bethesda, Md., USA, and maintained in 5% CO2 at 37° C. in minimum essential media (Life Technologies, Inc., Grand Island, N.Y., USA) supplemented with 1% penicillin, streptomycin (Invitrogen, Carlsbad, Calif., USA), and 10% fetal bovine serum for optimal growth. HT29 cells (1×10^6) were plated in […], and 24 h later, fresh media was added and treated with the RPC038, RPC042 and RPC046 for indicated time points (2, 4, 8, 16 and 24 h). The cells were then washed with cold phosphate buffered saline (PBS) and taken in 1 ml PBS on ice and centrifuged at 4° C. The pellet was resuspended in appropriate volumes of radio immunoprecipitation assay buffer with protease inhibitor, kept on ice for 45 min and subsequently centrifuged at 4° C. An aliquot of supernatant (protein extract) was used to estimate the protein concentration. An aliquot of protein extract (40 μg) was subjected to Western blot analysis on a 12% polyacrylamide gel and transferred to nitrocellulose membrane. Blots were blocked, incubated with primary anti-pMEK, pERK, pJNK, pcjun, ERK, JNK, Cjun, Caspase-8, Caspase-6, PARP cleavage, or GAPDH antibodies (Cell Signaling Technology, Danvers, Mass.) and then conjugated with a secondary anti-mouse or an anti-rabbit horseradish […] antibody, and detected by ChemiDoc™ XRS+ System with Image Lab™ Software.

[13] = tested on: human colorectal carcinoma HT29; experiment: Annexin-V FACS analysis of apoptosis; type: cell-based; conditions: FIGS. 3 and 4, treated versus control cells
Method: This activation was through ERK signaling and not through JNK signaling, resulting in PARP cleavage after 16 h. […] Activation of NFkB (p50) was also observed following treatment with these compounds.

[14] = tested on: human colorectal carcinoma HT29; experiment: Western blot of signal transduction pathways in HT29 cells; type: cell-based; conditions: HT29, IC50 dose; remark: listed apart in the source
KB-A1000 = conditions: MDR cell line characterisation; cited from earlier work
HL60-VCR [15] = conditions: MDR cell line characterisation; cited from earlier work

`OC[C@H]1OC(n2cnc3c(NN=Cc4ccccn4)ncnc32)[C@H](O)[C@@H]1O` (stereo partly shown) [I-9] gave a GI50 ([1]; 48 h incubation) of 1500 nM, a GI50 [2] of 1200 nM and a GI50 ([3]; 48 h incubation) of 2000 nM. The GI50 ([4]; 48 h incubation) was < 1000 nM, the GI50 ([5]; 48 h incubation) was 400 nM and the GI50 ([6]; 48 h incubation) was 2000 nM. For the same compound, the GI50 (leukemia cell lines) was 116 nM, the GI50 [7] was 269 nM and the GI50 (colon cancer cell lines) was 251 nM. The GI50 (CNS cancer cell lines) was 271 nM, the GI50 (melanoma cell lines) was 347 nM and the GI50 [8] was 196 nM. The GI50 (renal cancer cell lines) was 219 nM, the GI50 [9] was 137 nM and the GI50 (breast cancer cell lines) was 250 nM. For the same compound, the “cells found to be the most sensitive” value [10] was “leukemia, prostate, ovarian, and renal cancer cell lines”, the mean GI50 (MG-MID) [10] was 228 nM and the GI50 (HL60; Vincristine (VCR) sensitive) was 1000 nM. The GI50 (HL60-VCR [11]) was 1500 nM, the “phosphorylation of ERK (time)” value ([12]; Western blot pERK) was 4 h and the “phosphorylation of JNK” value ([12]; Western blot pJNK (results not shown)) was “without phosphorylation of JNK”. The “MEK activation (time)” value ([12]; Western blot pMEK) was 2 h, the “activation of cjun (time)” value ([12]; Western blot pcjun) was 6 h and the Caspase activation ([12]; initial studies) was “Caspase-3 activation through Caspase-6 and not through Caspase-8”. For the same compound, the “Apoptosis (Annexin-V, FACS analysis)” value [13] was “Apoptosis was also established” and the “Activation of NFkB (p50)” value [14] was “observed”.

`CC(C)=NNc1ncnc2c1ncn2C1O[C@H](CO)[C@@H](O)[C@H]1O` (stereo partly drawn) [I-12, (2R,3S,4R)-2-(hydroxymethyl)-5-(6-(2-(propan-2-ylidene)hydrazinyl)-9H-purin-9-yl)tetrahydrofuran-3,4-diol] showed a GI50 ([1]; Homo sapiens, K562, 48 h incubation) of 300 nM, a GI50 ([2]; Homo sapiens, HeLa) of 600 nM and a GI50 ([3]; Homo sapiens, HT-29, 48 h incubation) of 1600 nM. It also gave a GI50 ([4]; Homo sapiens, HCT-15, 48 h incubation) of 2800 nM, a GI50 ([5]; Homo sapiens, Caco-2, 48 h incubation) of 200 nM and a GI50 ([6]; Homo sapiens, MCF7, 48 h incubation) of 200 nM. It also gave a GI50 (leukemia cell lines; Homo sapiens) of 1270 nM, a GI50 ([7]; Homo sapiens) of 786 nM and a GI50 (colon cancer cell lines; Homo sapiens) of 497 nM. The GI50 (CNS cancer cell lines; Homo sapiens) was 1200 nM, the GI50 (melanoma cell lines; Homo sapiens) was 1900 nM and the GI50 ([8]; Homo sapiens) was 447 nM. For the same compound, the GI50 (renal cancer cell lines; Homo sapiens) was 516 nM, the GI50 ([9]; Homo sapiens) was 363 nM and the GI50 (breast cancer cell lines; Homo sapiens) was 751 nM. The mean GI50 (MG-MID) ([10]; Homo sapiens) was 847 nM, the “cells found to be the most sensitive” value [10] was “prostate, ovarian, colon, and renal cancer cell lines” and the GI50 (HL60; Homo sapiens, HL-60, Vincristine (VCR) sensitive) was 1800 nM. For the same compound, the GI50 (HL60-VCR [11]; HL60/VCR) was 2200 nM.

For `COc1cccc2c1C(=O)c1c(O)c3c(c(O)c1C2=O)C[C@@](O)(C(=O)CO)C[C@@H]3O[C@H]1C[C@H](N)[C@H](O)[C@H](C)O1` [doxorubicine], the “resistance expressed by KB-A1000” value (KB-A1000) is listed as 97 fold and the “resistance expressed by HL60-VCR” value (HL60-VCR [15]) is listed as 8 fold.

For `CC[C@]1(O)C[C@@H]2CN(CCc3c([nH]c4ccccc34)[C@@](C(=O)OC)(c3cc4c(cc3OC)N(C)[C@H]3[C@@](O)(C(=O)OC)[C@H](OC(C)=O)[C@]5(CC)C=CCN6CC[C@]43[C@@H]65)C2)C1` [vinblastine], the “resistance expressed by KB-A1000” value (KB-A1000) is listed as 43 fold and the “resistance expressed by HL60-VCR” value (HL60-VCR [15]) is listed as 620 fold.

From patent US9133230B2, “Hydrazone derivatives having potent antitumor activity toward multi-drug resistant tumor cells” (THE UNITED STATES OF AMERICA AS REPRESENTED BY THE …, priority 2011, dated 2015)
